Substitutions are numbered along the chain they refer to.
Experiments:
[1] = Serum concentration of androgen analogs after intravenous injection, by LC/MS; type: in vivo; conditions: mouse, 50 ug, 50 μg intravenous, C57/B6 mice
Protocol: FIG. 8. C57B6 mice were intravenously injected with 50 μg of IVMDHT, IVNDHT, and IVDHT. Blood samples were collected at 1, 2, 4, and 8 hours (n=4) and the serum concentrations of the compounds were analyzed by liquid chromatography mass spectrometry. With reference to 2 hours on FIG. 8, the upper line represents IVMDHT; the middle line represents IVNDHT, and the lower line represents IVDHT.
To assess the stability of different androgen analogs, 50 μg of IVDHT, IVNDHT, and IVMDHT was intravenously injected into C57/B6 mice. Blood samples were collected from the mice at 1, 2, 4, and 8 hours and analyzed by liquid chromatography/mass spectrometry (n=4).

AR = target: T1, AR (Mus musculus, UniProt P19091); experiment: microPET imaging in intact and castrated C57/B6 male mice; type: in vivo; conditions: 1.2 MBq intraperitoneal, images at 1, 2 and 6 hours
T1 construct: from tissue; host or cells: living C57/B6 male mice, intact or castrated; prostate and other organs
T1 sequence (P19091 1-899): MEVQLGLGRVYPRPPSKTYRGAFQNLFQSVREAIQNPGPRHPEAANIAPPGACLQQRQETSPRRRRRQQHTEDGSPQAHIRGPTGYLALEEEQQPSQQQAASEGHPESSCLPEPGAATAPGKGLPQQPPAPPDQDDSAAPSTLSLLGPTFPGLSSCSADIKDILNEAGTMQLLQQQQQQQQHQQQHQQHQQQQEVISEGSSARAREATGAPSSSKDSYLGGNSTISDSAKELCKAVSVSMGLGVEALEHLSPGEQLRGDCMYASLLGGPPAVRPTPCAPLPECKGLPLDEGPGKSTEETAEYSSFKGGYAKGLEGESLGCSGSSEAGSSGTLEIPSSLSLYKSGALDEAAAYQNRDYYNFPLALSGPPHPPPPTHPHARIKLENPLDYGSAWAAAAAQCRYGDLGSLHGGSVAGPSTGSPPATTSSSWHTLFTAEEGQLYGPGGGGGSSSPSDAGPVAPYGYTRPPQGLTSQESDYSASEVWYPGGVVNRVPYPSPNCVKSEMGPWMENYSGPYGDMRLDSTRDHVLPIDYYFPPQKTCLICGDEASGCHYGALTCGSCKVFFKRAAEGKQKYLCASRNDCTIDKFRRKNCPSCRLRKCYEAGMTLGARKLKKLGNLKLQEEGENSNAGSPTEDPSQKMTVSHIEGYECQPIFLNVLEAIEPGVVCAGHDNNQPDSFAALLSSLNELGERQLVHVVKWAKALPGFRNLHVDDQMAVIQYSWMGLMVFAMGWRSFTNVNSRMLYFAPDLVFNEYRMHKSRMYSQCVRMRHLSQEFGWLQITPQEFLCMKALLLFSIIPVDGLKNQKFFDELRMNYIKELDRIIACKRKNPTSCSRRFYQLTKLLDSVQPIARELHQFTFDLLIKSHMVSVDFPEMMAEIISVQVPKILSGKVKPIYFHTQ
Protocol: FIGS. 6A-6E. The androgen analog ^124IVMDHT was intravenously injected into the tail-vein of intact (FIG. 6A) and castrated mice (FIG. 6B) and imaged at 1 hour (FIG. 6A panel 1, FIG. 6B panel 1), 2 hours (FIG. 6A panel 2, FIG. 6B panel 2) and 6 hours (FIG. 6A panel 3, FIG. 6B panel 3). […] The mice were then analyzed at 1 hour (FIG. 6D panel 1, FIG. 6E panel 1), 2 hour (FIG. 6D panel 2, FIG. 6E panel 2) and 6 hours (FIG. 6D panel 3, FIG. 6E panel 3). Positive images are shown with arrows.
In this example, microPET imaging and biodistribution assays will be performed using three available and biologically relevant animal models to fully examine the specific binding affinity of IVMDHT with the AR in vivo. […] Tissue samples were weighed and counted and the results expressed as % ID/g and total counts per organ. […] The biodistribution results will be analyzed in prostate and other non-AR enrich tissues from intact and castrated mice to determine specific uptake of ^124IVMDHT.
To determine the specific binding affinity of IVMDHT with the AR in vivo, microPET imaging and biodistribution assays were performed. The binding specificity of ^124IVMDHT in 4-month-old castrated and intact C57/B6 male mice (n=4 per group) was evaluated. […]
Using a similar experimental approach, IVNDHT was assessed in C57/B6 male mice. […] The intake rate of ^124IVNDHT was further assessed by intraperitoneal injection. […]

endogenous AR [2] = target: T2, endogenous AR (Homo sapiens, UniProt P10275, T878A); experiment: Androgen-inducible (3ARE) luciferase reporter in LNCaP cells, endogenous AR transcriptional activity; type: cell-based; conditions: no AR expression vector, 1 nM and 10 nM, 24 hours
T2 construct: translocate endogenous AR into the nucleus in LNCaP cells; endogenous in cells; host or cells: LNCaP
T2 sequence (P10275 1-920 T878A): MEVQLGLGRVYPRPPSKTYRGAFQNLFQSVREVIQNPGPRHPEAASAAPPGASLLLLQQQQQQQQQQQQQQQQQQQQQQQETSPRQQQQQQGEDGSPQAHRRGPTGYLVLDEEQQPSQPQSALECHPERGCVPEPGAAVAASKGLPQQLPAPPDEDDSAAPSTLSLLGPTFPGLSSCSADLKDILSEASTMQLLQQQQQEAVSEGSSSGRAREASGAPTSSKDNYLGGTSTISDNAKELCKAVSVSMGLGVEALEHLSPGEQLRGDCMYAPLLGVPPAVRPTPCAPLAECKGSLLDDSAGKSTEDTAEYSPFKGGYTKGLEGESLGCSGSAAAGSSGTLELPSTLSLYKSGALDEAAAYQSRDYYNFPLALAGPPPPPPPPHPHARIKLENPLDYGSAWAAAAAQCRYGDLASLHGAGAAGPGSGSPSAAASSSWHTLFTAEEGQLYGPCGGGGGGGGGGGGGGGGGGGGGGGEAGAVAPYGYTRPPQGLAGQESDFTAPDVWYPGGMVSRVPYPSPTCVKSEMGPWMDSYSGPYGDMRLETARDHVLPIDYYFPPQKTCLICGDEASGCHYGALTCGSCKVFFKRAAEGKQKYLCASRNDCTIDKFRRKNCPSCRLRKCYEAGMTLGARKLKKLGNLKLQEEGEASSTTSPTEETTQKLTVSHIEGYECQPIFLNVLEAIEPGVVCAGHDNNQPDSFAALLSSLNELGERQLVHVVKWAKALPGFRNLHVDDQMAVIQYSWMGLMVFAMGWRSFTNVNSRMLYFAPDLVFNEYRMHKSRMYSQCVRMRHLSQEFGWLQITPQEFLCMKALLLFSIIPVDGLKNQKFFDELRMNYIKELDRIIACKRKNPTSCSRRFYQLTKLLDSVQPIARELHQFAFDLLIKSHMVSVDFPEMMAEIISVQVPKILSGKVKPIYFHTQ
Protocol: (§1) Cells were immunostained with an anti-AR antibody and 4′,6-diamidino-2-phenylindole (DAPI) to determine the nuclear location of the AR. FIG. 5D: CV-1 cells were transiently transfected in 48-well plates with 100 ng of luciferase reporter plasmid regulated by 3 androgen response elements (3ARE), 25 ng of pSV40 β-gal, or with or without 20 ng of the human AR expression vector. […] Then whole cell lysates were prepared to assess luciferase and β-gal activities. Transfection experiments were repeated three times in triplicate. Relative luciferase units (RLUs) were determined from three independent transfections and are presented as the mean+/−SEM.
(§2) Experiments were performed to assess the biological activity of IVMDHT. […] To determine the activity of IVMDHT in activating AR-mediated transcription, CV1 (FIG. 5D) and LNCaP cells (FIG. 5E) were transfected with an androgen-inducible luciferase reporter vector driven by AREs together either with or without the human AR expression vector.

human AR = target: T3, human AR (Homo sapiens, UniProt P10275); experiment: Androgen-inducible (3ARE) luciferase reporter in CV-1 cells transfected with human AR expression vector; type: cell-based; conditions: CV1 cells, 1 nM and 10 nM, 24 hours
T3 construct: expressed in transfected cells; host or cells: CV-1
T3 sequence (P10275 1-920): T2 sequence (P10275 1-920 T878A) with A878T
Protocol: as §1, §2

endogenous AR [3] = target: T2, endogenous AR; experiment: AR nuclear translocation, immunostaining with anti-AR antibody and DAPI in LNCaP cells; type: cell-based; conditions: 48 hours without androgens, then 8 hours with compound
Protocol: as §1, §2

Compound | half-life [1] | microPET signal in the vicinity of the bladder/prostate (AR) | AR-mediated luciferase activity (endogenous AR [2]) | AR-mediated luciferase activity (human AR) | nuclear location of the AR protein (endogenous AR [3])
C[C@]12CC[C@@H]3C4CCC(=O)C[C@@H]4C[C@@H](/C=C/I)[C@H]3[C@@H]1CC[C@@H]2O (stereo partly drawn) [IVNDHT, 7α-(E-2′-iodovinyl)-19-nor-5α-dihydrotestosterone] | ~1.5 h |  |  |  | 
C[C@]12CCC(=O)C[C@@H]1C[C@@H](/C=C/I)[C@@H]1[C@@H]2CC[C@@]2(C)[C@H]1CC[C@]2(C)O [IVMDHT, 7α-(E-2′-iodovinyl)-17α-methyl-5α-dihydrotestosterone] | ~1.5 h | low dosage and intraperitoneal injections extend the specific intake | increase in AR-mediated luciferase activity | increase in AR-mediated luciferase activity | uniform nuclear staining of the AR protein
C[C@]12CCC(=O)C[C@@H]1C[C@@H](/C=C/I)[C@@H]1[C@@H]2CC[C@]2(C)[C@@H](O)CC[C@@H]12 [IVDHT, 7α-(E-2′-iodovinyl)-5α-dihydrotestosterone] | ~1.5 h |  |  |  | 

— patent US11541062B2, “Methods of treating advanced prostate cancer” (priority 2017, dated 2023)
